Data taken from the NIST ThermoML archive (doi:10.1016/j.jct.2013.12.009).
Numbers after ± are expanded uncertainties.

Experiments:
[1] = for speed of sound / kinematic viscosity / mass density: Liquid; for speed of sound: Sing-around technique in a fixed-path interferometer; for surface tension liquid-gas: Pendant drop shape; for kinematic viscosity: Capillary tube (Ostwald / Ubbelohde) method; for mass density: Vibrating tube method
[2] = xn = mol fraction of the nth substance listed; details: for surface tension liquid-gas: Pendant drop shape; for viscosity / mass density: 101 kPa, Liquid; for viscosity: Concentric cylinders viscometry; for mass density: Vibrating tube method

CCCC[N+]1(C)CCCC1.O=S(=O)([N-]S(=O)(=O)C(F)(F)F)C(F)(F)F
[1], 101.33 kPa
Details	kinematic viscosity [m2/s]	mass density [kg/m3]	speed of sound [m/s]
288.02 K	–	–	1293.9 ± 1.5
288.15 K	8.9e-05 ± 2.2e-06	1403.37 ± 0.58	–
293.01 K	–	–	1281.8 ± 1.5
293.15 K	6.96e-05 ± 1.6e-06	1398.92 ± 0.58	–
298.01 K	–	–	1270 ± 1.5
298.15 K	5.57e-05 ± 1.3e-06	1394.49 ± 0.57	–
303.15 K	4.52e-05 ± 1e-06	1390.09 ± 0.57	–
303.2 K	–	–	1258 ± 1.5
308.14 K	–	–	1246.8 ± 1.5
308.15 K	3.69e-05 ± 8.3e-07	1385.66 ± 0.57	–
313.15 K	3.06e-05 ± 6.8e-07	1381.29 ± 0.56	1235.7 ± 1.5
318.12 K	–	–	1224.7 ± 1.5
318.15 K	2.55e-05 ± 5.7e-07	1376.92 ± 0.56	–
323.13 K	–	–	1213.8 ± 1.5
323.15 K	2.15e-05 ± 4.8e-07	1372.54 ± 0.55	–

[1]
Details	surface tension liquid-gas [mN/m]
288.15 K	33.71 ± 0.41
293.15 K	33.44 ± 0.4
298.15 K	33.22 ± 0.4
303.15 K	33.02 ± 0.4
308.15 K	32.82 ± 0.4
313.15 K	32.6 ± 0.4
318.15 K	32.35 ± 0.39
323.15 K	32.15 ± 0.39

CCC[N+]1(C)CCCC1.O=S(=O)([N-]S(=O)(=O)C(F)(F)F)C(F)(F)F
[1], 101.33 kPa
Details	kinematic viscosity [m2/s]	mass density [kg/m3]	speed of sound [m/s]
288.01 K	–	–	1294.4 ± 1.5
288.15 K	6.82e-05 ± 1.6e-06	1436.86 ± 0.61	–
293.01 K	–	–	1282.8 ± 1.5
293.15 K	5.33e-05 ± 1.2e-06	1432.36 ± 0.61	–
297.99 K	–	–	1271.3 ± 1.5
298.15 K	4.26e-05 ± 9.7e-07	1427.83 ± 0.61	–
303.15 K	3.48e-05 ± 7.8e-07	1423.32 ± 0.6	–
303.24 K	–	–	1259.5 ± 1.5
308.15 K	2.88e-05 ± 6.4e-07	1418.81 ± 0.6	–
308.21 K	–	–	1248.6 ± 1.5
313.15 K	2.42e-05 ± 5.3e-07	1414.3 ± 0.59	–
313.2 K	–	–	1237.6 ± 1.5
318.15 K	2.06e-05 ± 4.5e-07	1409.86 ± 0.59	–
318.16 K	–	–	1226.9 ± 1.5
323.15 K	1.76e-05 ± 3.9e-07	1405.41 ± 0.58	–
323.21 K	–	–	1216.2 ± 1.5

[1]
Details	surface tension liquid-gas [mN/m]
288.15 K	35.04 ± 0.41
293.15 K	34.87 ± 0.41
298.15 K	34.61 ± 0.41
303.15 K	34.37 ± 0.41
308.15 K	34.14 ± 0.41
313.15 K	33.94 ± 0.41
318.15 K	33.72 ± 0.41
323.15 K	33.48 ± 0.4

CCCC[N+]1(C)CCCC1.O=S(=O)([N-]S(=O)(=O)C(F)(F)F)C(F)(F)F + CC#N
[2]
Details	mass density, 288.15 K [kg/m3]	mass density, 298.15 K [kg/m3]	mass density, 308.15 K [kg/m3]	surface tension liquid-gas, 288.15 K [mN/m]	surface tension liquid-gas, 298.15 K [mN/m]	surface tension liquid-gas, 308.15 K [mN/m]	viscosity, 288.15 K [mPa·s]	viscosity, 298.15 K [mPa·s]	viscosity, 308.15 K [mPa·s]
x1 = 0.053	941.8 ± 0.7	931.2 ± 0.7	920.5 ± 0.8	30.92 ± 0.35	29.78 ± 0.35	28.55 ± 0.34	–	–	–
x1 = 0.1924	–	–	–	–	–	–	2.41 ± 0.05	2.02 ± 0.04	1.73 ± 0.04
x1 = 0.1989	1156.4 ± 0.5	1146.2 ± 0.5	1136.2 ± 0.5	32.45 ± 0.36	31.45 ± 0.36	30.57 ± 0.35	–	–	–
x1 = 0.3593	1263.1 ± 0.3	1253.5 ± 0.3	1243.9 ± 0.4	33.18 ± 0.37	32.48 ± 0.37	31.76 ± 0.36	–	–	–
x1 = 0.4602	–	–	–	–	–	–	13.16 ± 0.3	9.79 ± 0.21	7.56 ± 0.16
x1 = 0.5201	1322.1 ± 0.3	1312.7 ± 0.3	1303.4 ± 0.3	33.45 ± 0.38	32.84 ± 0.37	32.2 ± 0.37	–	–	–
x1 = 0.598	–	–	–	–	–	–	26.33 ± 0.6	18.47 ± 0.4	13.58 ± 0.29
x1 = 0.6103	1344.7 ± 0.4	1335.5 ± 0.4	1326.4 ± 0.4	33.51 ± 0.38	32.97 ± 0.38	32.44 ± 0.38	–	–	–
x1 = 0.788	1377.3 ± 0.4	1368.3 ± 0.4	1359.2 ± 0.4	33.58 ± 0.39	33.13 ± 0.39	32.68 ± 0.39	–	–	–
x1 = 0.8159	–	–	–	–	–	–	65.88 ± 1.4	42.55 ± 0.95	29.18 ± 0.66
x1 = 0.9394	1396.6 ± 0.5	1387.8 ± 0.5	1379 ± 0.5	33.71 ± 0.4	33.2 ± 0.4	32.72 ± 0.39	–	–	–
x1 = 1	1403.4 ± 0.6	1394.5 ± 0.6	1385.7 ± 0.6	33.71 ± 0.4	33.22 ± 0.4	32.82 ± 0.4	–	–	–

CCCC[N+]1(C)CCCC1.O=S(=O)([N-]S(=O)(=O)C(F)(F)F)C(F)(F)F + CO
[2]
Details	mass density, 288.15 K [kg/m3]	mass density, 298.15 K [kg/m3]	mass density, 308.15 K [kg/m3]	surface tension liquid-gas, 288.15 K [mN/m]	surface tension liquid-gas, 298.15 K [mN/m]	surface tension liquid-gas, 308.15 K [mN/m]	viscosity, 288.15 K [mPa·s]	viscosity, 298.15 K [mPa·s]	viscosity, 308.15 K [mPa·s]
x1 = 0.0495	970.4 ± 0.8	960.7 ± 0.8	951.1 ± 0.8	24.36 ± 0.32	23.54 ± 0.31	22.73 ± 0.31	–	–	–
x1 = 0.1886	1186.4 ± 0.5	1176.8 ± 0.5	1167.3 ± 0.5	26.9 ± 0.33	26.36 ± 0.33	25.86 ± 0.33	–	–	–
x1 = 0.2054	–	–	–	–	–	–	5.04 ± 0.11	3.91 ± 0.08	3.11 ± 0.07
x1 = 0.3407	1281.7 ± 0.3	1272.3 ± 0.3	1263 ± 0.4	29.25 ± 0.35	28.95 ± 0.35	28.63 ± 0.35	–	–	–
x1 = 0.4365	–	–	–	–	–	–	17.5 ± 0.38	12.51 ± 0.27	9.35 ± 0.2
x1 = 0.4932	1332.2 ± 0.4	1323 ± 0.3	1313.8 ± 0.3	31.03 ± 0.36	30.85 ± 0.36	30.54 ± 0.36	–	–	–
x1 = 0.5394	–	–	–	–	–	–	26.71 ± 0.58	18.54 ± 0.4	13.51 ± 0.29
x1 = 0.6076	1356.2 ± 0.4	1347 ± 0.4	1338 ± 0.4	32.08 ± 0.38	31.67 ± 0.37	31.36 ± 0.37	–	–	–
x1 = 0.637	1361.2 ± 0.4	1352.1 ± 0.4	1343 ± 0.4	32.25 ± 0.38	31.94 ± 0.38	31.65 ± 0.37	–	–	–
x1 = 0.7067	–	–	–	–	–	–	49.43 ± 1.1	32.82 ± 0.73	23.02 ± 0.51
x1 = 0.801	1384 ± 0.5	1375 ± 0.5	1366.1 ± 0.5	33.23 ± 0.39	32.77 ± 0.39	32.33 ± 0.38	–	–	–
x1 = 0.8363	1388.1 ± 0.5	1379.1 ± 0.5	1370.3 ± 0.5	–	–	–	–	–	–
x1 = 0.9135	1395.6 ± 0.5	1386.7 ± 0.5	1377.9 ± 0.5	33.57 ± 0.4	33.1 ± 0.4	32.65 ± 0.39	–	–	–
x1 = 1	1403.4 ± 0.6	1394.5 ± 0.6	1385.7 ± 0.6	33.71 ± 0.4	33.22 ± 0.4	32.82 ± 0.4	–	–	–

CC#N [acetonitrile]
[1]
Details	surface tension liquid-gas [mN/m]
288.15 K	29.53 ± 0.34
298.15 K	28.34 ± 0.34
308.15 K	27.15 ± 0.33

[1], 101 kPa
Details	mass density [kg/m3]
288.15 K	787.2 ± 0.2
298.15 K	776.53 ± 0.15
308.15 K	765.7 ± 0.2

CC#N [acetonitrile] + CCCC[N+]1(C)CCCC1.O=S(=O)([N-]S(=O)(=O)C(F)(F)F)C(F)(F)F
[2], x2 = 0
Details	mass density [kg/m3]	surface tension liquid-gas [mN/m]
288.15 K	787.2 ± 0.2	29.53 ± 0.34
298.15 K	776.5 ± 0.2	28.34 ± 0.34
308.15 K	765.7 ± 0.2	27.15 ± 0.33

CO [methanol]
[1]
Details	surface tension liquid-gas [mN/m]
288.15 K	22.88 ± 0.31
298.15 K	22 ± 0.3
308.15 K	21.01 ± 0.3

[1], 101 kPa
Details	mass density [kg/m3]
288.15 K	795.8 ± 0.2
298.15 K	786.45 ± 0.15
308.15 K	777 ± 0.2

CO [methanol] + CCCC[N+]1(C)CCCC1.O=S(=O)([N-]S(=O)(=O)C(F)(F)F)C(F)(F)F
[2], x2 = 0
Details	mass density [kg/m3]	surface tension liquid-gas [mN/m]
288.15 K	795.8 ± 0.2	22.88 ± 0.31
298.15 K	786.4 ± 0.2	22 ± 0.3
308.15 K	777 ± 0.2	21.01 ± 0.3
